# Entries after “also recorded” stand apart in the source; their conditions may differ.
# Key:
# Type in all cases: in vivo, mice
# [1] = system: bleomycin-induced PF mouse model; test: Lung function measurements (FlexiVent) in bleomycin-induced PF mouse model
# Description: (§1) The compounds were administered by oral gavage once daily as indicated. The vehicle was a 1:1:18 ratio of DMSO:Tween® 80:saline. Oral formulations were applied at 0.3 and 3 mg/mL concentrations to achieve doses of 3 and 30 mg/kg, respectively.
# All animal procedures were conducted in accordance with the rules and regulations of the Institutional Animal Care and Use Committee of the National Institutes of Alcohol Abuse and Alcoholism (NIAAA), under the protocols of LPS-GK1. Thirteen-week-old male C57BL/6J mice were obtained from The Jackson Laboratory (Bar Harbor, Maine, USA). Grm5^−/− (mGluR5 KO) mice (JAX 003121) were purchased from The Jackson Laboratory. […] (CB1R KO) mice were generated as described in Zimmer et al., Proc. Natl. Acad. Sci. USA, 96:5780-5785 (1999). Cnr1^−/− and Grm5^−/− mice were on a C57BL/6J genetic background. Both Grm5^−/− and Cnr1^−/− mice colonies were maintained with heterozygous breeding. […]
# Respiratory system mechanics measurements were performed using the FlexiVent FX system (SCIREQ Inc., Montreal, Canada), which is equipped with an FX1 module and negative pressure forced expiration (NPFE) extension for mice. […] Pressure-volume (PV) curve, airway resistance, tissue damping (G), tissue elastance (H), forced expiratory volume per 0.1 seconds (FEV 0.1), forced vital capacity (FVC), inspiratory capacity (IC), and inhaled air amount (A) parameters were measured. […]
# [2] = system: bleomycin-induced PF mouse model; test: Body weight in bleomycin-induced PF mouse model; details: basimglurant 3 mg/kg oral, days 8 to 28 after single bleomycin administration, vs vehicle
# Description: as §1
# (§2) All animal procedures were conducted in accordance with the rules and regulations of the Institutional Animal Care and Use Committee of the National Institutes of Alcohol Abuse and Alcoholism (NIAAA), under the protocols of LPS-GK1. Thirteen-week-old male C57BL/6J mice were obtained from The Jackson Laboratory (Bar Harbor, Maine, USA). Grm5^−/− (mGluR5 KO) mice (JAX 003121) were purchased from The Jackson Laboratory. […] (CB1R KO) mice were generated as described in Zimmer et al., Proc. Natl. Acad. Sci. USA, 96:5780-5785 (1999). Cnr1^−/− and Grm5^−/− mice were on a C57BL/6J genetic background. Both Grm5^−/− and Cnr1^−/− mice colonies were maintained with heterozygous breeding. Mice were housed individually under a 12-hour light/dark cycle and fed a standard diet, ad libitum (Teklad NIH-31; Envigo, Huntingdon, UK).
# A bleomycin-induced pulmonary fibrosis model by delivery of bleomycin via oropharyngeal aspiration was generated as described in Park et al., Am. J. Respir. Cell Mol. Biol., 62(2):178-190 (2020). […]
# [3] = system: bleomycin-induced PF mouse model; test: Survival in bleomycin-induced pulmonary fibrosis mouse model
# Description: as §1, §2
# A bleomycin-induced pulmonary fibrosis model by delivery of bleomycin via oropharyngeal aspiration was generated as described in Park et al., Am. J. Respir. Cell Mol. Biol., 62(2):178-190 (2020). Briefly, bleomycin was delivered to mice anesthetized with ketamine/xylazine through the oropharynx at 1 U/kg dose using a sterile 100 μL pipette during inspiration at a volume of 100 μL/50 g body weight. Sterile saline was used as vehicle and applied to the control groups. The animals were then allowed to recover from the anesthesia.
# Survival curves were plotted using GraphPad Prism 9 software. Survival was analyzed by using Log-rank (Mantel-Cox) test for assessing the statistical difference between animal groups.
# [4] = system: bleomycin-induced PF mouse model; test: Lung hydroxyproline (fibrosis marker) in bleomycin-induced PF mouse model; details: fenobam 30 mg/kg daily oral for 14 days vs vehicle, bleomycin 1 U/kg
# Description: as §1
# as §2, with “UK). […]” for “UK).”
# The degree of lung fibrosis was quantified biochemically by measuring the hydroxyproline content of lung extracts using liquid chromatography/tandem mass spectrometry (LC-MS/MS) as described in Park et al., Am. […]
# [5] = basimglurant 3 mg/kg oral, days 8 to 28 after single bleomycin administration, vs vehicle
structure (smiles),measurement,setting,value
Cc1nc(C#Cc2ccnc(Cl)c2)c(C)n1-c1ccc(F)cc1 [basimglurant],pulmonary tissue stiffness,[1]; [5],reduced pulmonary tissue stiffness
same,body weight loss,[2],reduced body weight loss
same,survival rate (in words),[3]; [5],increased survival rate
CN1CC(=O)NC1=NC(=O)Nc1cccc(Cl)c1 [fenobam],decline in pulmonary function parameter: forced expiratory volume (FEV) at 0.1 sec. (air flow),"[1]; fenobam 30 mg/kg daily oral for 14 days vs vehicle, bleomycin 1 U/kg",significantly attenuated
same,fibrosis as measured by hydroxyproline level in lungs,[4],significantly attenuated fibrosis; also recorded: attenuated pulmonary fibrosis
"Cc1nc(C#Cc2ccnc(Cl)c2)c(C)n1-c1ccc(OC(F)(F)F)cc1 [CTEP, 2-chloro-4-((2,5-dimethyl-1-(4-(trifluoromethoxy)phenyl)-1H-imidazol-4-yl)ethynyl)pyridine]",survival rate,"[3]; CTEP 3 mg/kg daily oral for 28 days after single oropharyngeal bleomycin 1 U/kg, vehicle-treated mice 50%",100%
same,survival (in words),"[3]; CTEP 3 mg/kg daily oral gavage vs vehicle, bleomycin 1 U/kg",significantly improved survival; also recorded: prevented mortality
